Reference: patent publication US12227495B2, “Herbicidal compounds” (SYNGENTA CROP PROTECTION AG, priority 2018, dated 2025)

What was measured:
Format in all cases: in vivo
[1] = tested on: Ipomoea hederacea (IPOHE); test: Post-emergence herbicide test, glasshouse, percentage damage; conditions: 1000 g/ha, evaluated after 13 days
Method in brief: (§1)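 Seeds sown in pots; cultured 1 day (pre-emergence) or 8 days (post-emergence) in a controlled glasshouse; then sprayed with the active in acetone/water 50:50 plus 0.5% Tween 20 at 500 g/ha unless noted; grown on 13 days; damage assessed and banded into five classes.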

[2] = tested on: Setaria faberi (SETFA); test: as above; conditions: 1000 g/ha, evaluated after 13 days
Method in brief: as §1

[3] = tested on: Echinochloa crus-galli (ECHCG); test: as above; conditions: 1000 g/ha, evaluated after 13 days
Method in brief: as §1

[4] = tested on: Lolium perenne (LOLPE); test: as above; conditions: 1000 g/ha, evaluated after 13 days
Method in brief: as §1

[5] = tested on: Amaranthus retoflexus (AMARE); test: as above; conditions: 1000 g/ha, evaluated after 13 days
Method in brief: as §1

[6] = tested on: Solanum nigrum (SOLNI); test: as above; conditions: 1000 g/ha, evaluated after 13 days
Method in brief: as §1

[7] = tested on: Ipomoea hederacea (IPOHE); test: Pre-emergence herbicide test, glasshouse, percentage damage; conditions: rate 1000 g/ha, evaluated after 13 days
Method in brief: as §1

[8] = tested on: Setaria faberi (SETFA); test: as above; conditions: rate 1000 g/ha, evaluated after 13 days
Method in brief: as §1

[9] = tested on: Echinochloa crus-galli (ECHCG); test: as above; conditions: rate 1000 g/ha, evaluated after 13 days
Method in brief: as §1

[10] = tested on: Lolium perenne (LOLPE); test: as above; conditions: rate 1000 g/ha, evaluated after 13 days
Method in brief: as §1

[11] = tested on: Amaranthus retoflexus (AMARE); test: as above; conditions: rate 1000 g/ha, evaluated after 13 days
Method in brief: as §1

[12] = tested on: Solanum nigrum (SOLNI); test: as above; conditions: rate 1000 g/ha, evaluated after 13 days
Method in brief: as §1

| SMILES | percentage damage caused to the plant, IPOHE [1] | percentage damage caused to the plant, SETFA [2] | percentage damage caused to the plant, ECHCG [3] | percentage damage caused to the plant, LOLPE [4] | percentage damage caused to the plant, AMARE [5] | percentage damage caused to the plant, SOLNI [6] | Pre-emergence Test IPOHE percentage damage (five point scale) [7] | Pre-emergence Test SETFA percentage damage (five point scale) [8] | Pre-emergence Test ECHCG percentage damage (five point scale) [9] | Pre-emergence Test LOLPE percentage damage (five point scale) [10] | Pre-emergence Test AMARE percentage damage (five point scale) [11] | Pre-emergence Test SOLNI percentage damage (five point scale) [12] |
| --- | --- | --- | --- | --- | --- | --- | --- | --- | --- | --- | --- | --- |
| Fc1cc(Cl)cnc1Oc1cccc(F)c1-c1cc(C(F)F)on1 [Compound A30] | 5 (5=81-100%) | 5 (5=81-100%) | 5 (5=81-100%) | 5 (5=81-100%) | 5 (5=81-100%) | 5 (5=81-100%) | 5 (5=81-100%) | 5 (5=81-100%) | 5 (5=81-100%) | 5 (5=81-100%) | 5 (5=81-100%) | 5 (5=81-100%) |
| Fc1cc(Cl)cnc1Oc1cccc(F)c1-c1cc(C(F)(F)F)no1 [Compound A31] | 5 (5=81-100%) | 5 (5=81-100%) | 5 (5=81-100%) | 5 (5=81-100%) | 5 (5=81-100%) | 5 (5=81-100%) | 5 (5=81-100%) | 5 (5=81-100%) | 5 (5=81-100%) | 5 (5=81-100%) | 5 (5=81-100%) | 5 (5=81-100%) |
| N#Cc1cccc(Oc2ccc(Cl)cn2)c1-n1cc(C(F)(F)F)cn1 [Compound A32] | 5 (5=81-100%) | 5 (5=81-100%) | 5 (5=81-100%) | 5 (5=81-100%) | 5 (5=81-100%) | 5 (5=81-100%) | 5 (5=81-100%) | 5 (5=81-100%) | 5 (5=81-100%) | 4 (4=61-80%) | 5 (5=81-100%) | 5 (5=81-100%) |
| N#Cc1cccc(Oc2ncc(Cl)cc2F)c1-n1cc(C(F)(F)F)cn1 [Compound A33, 3-[(5-chloro-3-fluoro-2-pyridyl)oxy]-2-[4-(trifluoromethyl)pyrazol-1-yl]benzonitrile] | 5 (5=81-100%) | 5 (5=81-100%) | 5 (5=81-100%) | 5 (5=81-100%) | 5 (5=81-100%) | 5 (5=81-100%) | 2 (2=21-40%) | 5 (5=81-100%) | 5 (5=81-100%) | 4 (4=61-80%) | 5 (5=81-100%) | 5 (5=81-100%) |
| N#Cc1cccc(Oc2ncc(F)cc2F)c1-n1cc(C(F)(F)F)cn1 [Compound A34] | 5 (5=81-100%) | 5 (5=81-100%) | 5 (5=81-100%) | 5 (5=81-100%) | 5 (5=81-100%) | 5 (5=81-100%) | 5 (5=81-100%) | 5 (5=81-100%) | 5 (5=81-100%) | 5 (5=81-100%) | 5 (5=81-100%) | 5 (5=81-100%) |
| Fc1cc(Cl)cnc1Oc1cccc(F)c1-c1ncc(C(F)F)o1 [Compound A35] | 2 (2=21-40%) | 4 (4=61-80%) | 1 (1=0-20%) | 1 (1=0-20%) | 5 (5=81-100%) | 5 (5=81-100%) | 1 (1=0-20%) | 5 (5=81-100%) | 5 (5=81-100%) | 1 (1=0-20%) | 3 (3=41-60%) | 5 (5=81-100%) |
| COc1cccc(Oc2ncc(Cl)cc2F)c1-n1cc(C(F)(F)F)cn1 [Compound A36, 5-chloro-3-fluoro-2-[3-methoxy-2-[4-(trifluoromethyl)pyrazol-1-yl]phenoxy]pyridine] | 2 (2=21-40%) | 5 (5=81-100%) | 4 (4=61-80%) | 4 (4=61-80%) | 5 (5=81-100%) | 5 (5=81-100%) | 5 (5=81-100%) | 5 (5=81-100%) | 5 (5=81-100%) | 3 (3=41-60%) | 5 (5=81-100%) | 5 (5=81-100%) |
| N#Cc1cc(Cl)cnc1Oc1cccc(F)c1-c1cc(C(F)F)no1 [Compound A37] | 5 (5=81-100%) | 5 (5=81-100%) | 4 (4=61-80%) | 4 (4=61-80%) | 5 (5=81-100%) | 5 (5=81-100%) | 5 (5=81-100%) | 5 (5=81-100%) | 5 (5=81-100%) | 5 (5=81-100%) | 5 (5=81-100%) | 5 (5=81-100%) |
| O=[N+]([O-])c1cc(Cl)cnc1Oc1cccc(F)c1-c1cc(C(F)F)no1 [Compound A38] | 1 (1=0-20%) | 1 (1=0-20%) | 1 (1=0-20%) | 1 (1=0-20%) | 5 (5=81-100%) | 5 (5=81-100%) | 1 (1=0-20%) | 1 (1=0-20%) | 1 (1=0-20%) | 1 (1=0-20%) | 4 (4=61-80%) | 1 (1=0-20%) |
| CS(=O)(=O)c1cnc(Oc2cccc(F)c2-c2cc(C(F)F)no2)c(F)c1 [Compound A39] | 1 (1=0-20%) | 1 (1=0-20%) | 1 (1=0-20%) | 1 (1=0-20%) | 3 (3=41-60%) | 3 (3=41-60%) | 1 (1=0-20%) | 1 (1=0-20%) | 1 (1=0-20%) | 1 (1=0-20%) | 5 (5=81-100%) | 1 (1=0-20%) |
| CS(=O)(=O)c1ccc(Oc2cccc(F)c2-c2cc(C(F)F)no2)nc1 [Compound A40] | 1 (1=0-20%) | 1 (1=0-20%) | 1 (1=0-20%) | 1 (1=0-20%) | 3 (3=41-60%) | 4 (4=61-80%) | 1 (1=0-20%) | 1 (1=0-20%) | 1 (1=0-20%) | 1 (1=0-20%) | 2 (2=21-40%) | 1 (1=0-20%) |
